# Measured values published in article PMC7811009, “Oxytocin modulates local topography of human functional connectome in healthy men at rest” (Communications Biology, 2021).
# Legend:
# [1] = system: human functional connectome at rest; assay: Resting-state BOLD-fMRI: network edges (microscale), FDR and Network Based Statistics; format: in vivo
# Source text: We used the CONN functional connectivity toolbox[97] to generate brain-wide functional connectivity matrices for each subject/session. […] The default atlas of the CONN toolbox includes 132 non-overlapping ROIs spanning cortical and subcortical areas and the cerebellum using a combination of the cortical and subcortical areas from the FSL Harvard-Oxford atlas and of the cerebellar areas of the Automatic Anatomical Labelling atlas (Supplementary data 1 for a detailed description). […] Finally, we normalized our correlation measures to z-scores using the Fisher’s r-z transform per subject/session.
# We did so by examining treatment-related changes in mean connectivity and global efficiency of the whole-brain network (macroscale), graph properties of regional connectivity at the node level (mesoscale) and individual connections between pairs of nodes (microscale). These analyses were performed using repeated measures one-way analysis of variance, implemented in Matlab 2016. When a significant effect was found, we followed up with post-hoc paired t-tests between each pair of the four treatment conditions, using FDR correction for multiple testing.
# Microscale. We performed two different analyses to investigate treatment-related changes on each individual edge of the connectivity matrices. […]
# [2] = system: human functional connectome at rest; assay: Resting-state BOLD-fMRI, graph theory: global efficiency (macroscale); 40 IU intranasal (spray/nebuliser) or 10 IU intravenous, about 57 min post-dosing, 16 healthy men; format: in vivo; conditions: repeated measures one-way ANOVA, F (1.932, 28.980) = 0.568, p = 0.567
# Experimental: Each experimental session began with the treatment administration protocol that lasted about 22 min in total (Fig. 8, lower panel). After drug administration, participants were guided to the MRI scanner, where eight pulsed continuous arterial spin labelling scans (each lasting approx. eight minutes) were acquired, spanning 15–104 min post-dosing (data reported elsewhere[11]). The 8-min resting state BOLD-fMRI scan reported herein was obtained at about 57 ± 3.38 min post-dosing. Participants were instructed to lie still and maintain their gaze on a centrally placed fixation cross during scanning. We assessed participants’ levels of alertness (anchors: alert-drowsy) and excitement (anchors: excited-calm) using visual analogue scales (0–100) at three different time-points during the scanning session to evaluate subjective drug effects across time (data reported elsewhere[11]).
# MRI data were acquired on a 3 T MR750 system (GE Healthcare, Waukesha, Wisconsin) with a 32-channel head coil. Functional data was acquired using a shot multi-echo echo planar imaging (EPI) sequence (TR = 2500 ms, TE’s = 12, 28, 44 and 60 ms, FA = 80°, FOV = 240 × 240 mm^2, Matrix = 64 × 64, Slice thickness = 3 mm, 32 continuous descending axial slices, resolution = 3.75 × 3.75 × 3 mm). […] The resting state fMRI scan lasted 8 min 10 s, with collection of a total of 192 volumes for each echo. […]
# [3] = cited from earlier work
# Source text: It is not yet clear which precise mechanisms mediate the effects of intravenous oxytocin on brain function. […] At least three mechanisms have been postulated. First, it is possible that the direct peripheral effects of oxytocin on oxytocin receptors expressed in vegetative territories, such as the heart, may be an indirect source of changes in the brain.
smiles,measurement,setting,value
CC[C@H](C)[C@@H]1NC(=O)[C@H](Cc2ccc(O)cc2)NC(=O)[C@@H](N)CSSC[C@@H](C(=O)N2CCC[C@H]2C(=O)N[C@@H](CC(C)C)C(=O)NCC(N)=O)NC(=O)[C@H](CC(N)=O)NC(=O)[C@H](CCC(N)=O)NC1=O [oxytocin],Connectivity of individual edges across the four treatment conditions,[1]; FDR correction for the number of edges,did not find any individual edge where the four treatment conditions differed in connectivity
same,Connectivity of subnetworks across the four treatment conditions,"[1]; NBS, irrespective of the primary threshold used",did not identify any subnetwork where the four treatment conditions differed on connectivity
same,Differences in global efficiency across the four treatment conditions,[2],no significant differences
same,Amount crossing the blood–brain barrier (BBB),[3],very small amounts
same,Effects on heart-rate or heart-rate variability,[3]; same doses/methods and cohort of participants,absence of effects
